Experimental data from ChEMBL document CHEMBL5665443, “Enzyme Inhibitor Single Concentration assay results for EUbOPEN Chemogenomics Library” (2024).

Experiments:
[1] = biological target: Methyl-CpG-binding domain protein 4 (Homo sapiens) (UniProt O95243); details: Compound Concentration 10.0 uM;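 further: MBD4 activity read as fluorescence at 594 nm from cleavage and release of a quenched duplex DNA oligonucleotide, with APE1 coupled to incise the strand and raise turnover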
Description: Inhibition of MBD4 by quantifying inhibition of MBD4-mediated cleavage and dissociation of quenched duplex DNA oligonucleotides, measured as fluorescence at 594 nm. To generate a functional strand incision and increase turn-over this assay is coupled to APE1.

[2] = biological target: DNA-3-methyladenine glycosylase (Homo sapiens) (UniProt P29372); details: Compound Concentration 10.0 uM, Hit No;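 further: enzyme assay where MPG cuts a quenched duplex DNA oligonucleotide probe, paired with APE1 for strand incision and turnover, read as fluorescence at 594 nm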
Chain of DNA-3-methyladenine glycosylase (Homo sapiens) (P29372 whole entry): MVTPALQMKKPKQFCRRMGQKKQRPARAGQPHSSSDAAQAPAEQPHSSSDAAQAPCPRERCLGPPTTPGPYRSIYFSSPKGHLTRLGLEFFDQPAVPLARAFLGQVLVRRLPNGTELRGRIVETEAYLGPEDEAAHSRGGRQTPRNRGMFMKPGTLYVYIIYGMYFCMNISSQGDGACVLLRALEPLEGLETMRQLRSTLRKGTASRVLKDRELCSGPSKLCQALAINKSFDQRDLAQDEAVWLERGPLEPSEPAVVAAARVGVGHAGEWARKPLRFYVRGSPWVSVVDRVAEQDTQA
Description: Inhibition of MPG by quantifying inhibition of MPG-mediated cleavage and dissociation of quenched duplex DNA oligonucleotides, measured as fluorescence at 594 nm. To generate a functional strand incision and increase turn-over this assay is coupled to APE1.

[3] = biological target: Endonuclease 8-like 1 (Homo sapiens) (UniProt Q96FI4); details: Compound Concentration 10.0 uM, Hit No;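 further: fluorescence at 594 nm from quenched duplex DNA oligonucleotides released by NEIL1 cleavage and strand separation, reported as reduction of this enzyme activity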
Chain of Endonuclease 8-like 1 (Homo sapiens) (Q96FI4 whole entry): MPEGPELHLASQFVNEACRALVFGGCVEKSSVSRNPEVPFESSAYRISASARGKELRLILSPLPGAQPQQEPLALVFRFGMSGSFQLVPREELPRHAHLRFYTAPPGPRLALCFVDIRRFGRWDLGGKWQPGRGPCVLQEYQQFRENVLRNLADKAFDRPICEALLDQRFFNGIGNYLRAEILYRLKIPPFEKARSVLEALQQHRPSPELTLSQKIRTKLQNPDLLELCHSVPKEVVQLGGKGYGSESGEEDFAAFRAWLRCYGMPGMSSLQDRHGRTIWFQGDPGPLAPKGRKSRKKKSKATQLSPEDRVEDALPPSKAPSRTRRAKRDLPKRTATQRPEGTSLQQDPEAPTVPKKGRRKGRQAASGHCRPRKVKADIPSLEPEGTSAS
Description: Inhibition of NEIL1 by quantifying inhibition of NEIL1-mediated cleavage and dissociation of quenched duplex DNA oligonucleotides, measured as fluorescence at 594 nm.

[4] = biological target: T1, Endonuclease 8-like 2 (Homo sapiens) (UniProt Q969S2); details: Compound Concentration 10.0 uM, Hit No;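 further: fluorescence at 594 nm reports NEIL2 cutting and release of a quenched double-stranded DNA oligo substrate, reduced signal read as inhibition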
T1 sequence (whole entry): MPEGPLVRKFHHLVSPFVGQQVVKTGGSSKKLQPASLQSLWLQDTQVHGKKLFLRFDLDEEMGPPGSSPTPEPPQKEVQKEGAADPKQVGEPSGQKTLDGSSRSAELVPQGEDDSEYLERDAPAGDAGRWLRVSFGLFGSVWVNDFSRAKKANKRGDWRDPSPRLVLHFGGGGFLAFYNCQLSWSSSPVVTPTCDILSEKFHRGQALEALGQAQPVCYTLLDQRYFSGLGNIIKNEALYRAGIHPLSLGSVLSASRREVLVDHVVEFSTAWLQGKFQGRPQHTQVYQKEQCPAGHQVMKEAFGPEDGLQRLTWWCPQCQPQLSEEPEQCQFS
Description: Inhibition of NEIL2 by quantifying inhibition of NEIL2-mediated cleavage and dissociation of quenched duplex DNA oligonucleotides, measured as fluorescence at 594 nm.

[5] = biological target: N-glycosylase/DNA lyase (Homo sapiens) (UniProt O15527); details: Compound Concentration 10.0 uM, Hit No;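 further: OGG1 cleavage of a quenched duplex DNA oligonucleotide, coupled to APE1 for strand incision, read as fluorescence at 594 nm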
Chain of N-glycosylase/DNA lyase (Homo sapiens) (O15527 whole entry): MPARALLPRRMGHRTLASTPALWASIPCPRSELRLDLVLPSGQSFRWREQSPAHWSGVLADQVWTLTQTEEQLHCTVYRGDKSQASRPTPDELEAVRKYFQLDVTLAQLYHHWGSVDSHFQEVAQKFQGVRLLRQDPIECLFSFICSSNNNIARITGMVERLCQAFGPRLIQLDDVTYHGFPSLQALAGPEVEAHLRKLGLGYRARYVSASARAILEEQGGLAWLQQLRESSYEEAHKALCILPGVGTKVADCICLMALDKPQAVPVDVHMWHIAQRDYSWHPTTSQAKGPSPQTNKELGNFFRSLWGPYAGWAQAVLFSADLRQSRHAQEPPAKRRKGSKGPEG
Description: Inhibition of OGG1 by quantifying inhibition of OGG1-mediated cleavage and dissociation of quenched duplex DNA oligonucleotides, measured as fluorescence at 594 nm. To generate a functional strand incision and increase turn-over this assay is coupled to APE1.

[6] = biological target: G/T mismatch-specific thymine DNA glycosylase (Homo sapiens) (UniProt Q13569); details: Compound Concentration 10.0 uM, Hit No;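 further: human TDG cleavage of quenched duplex DNA oligonucleotides coupled to APE1, strand release read as fluorescence at 594 nm, inhibition of TDG activity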
Chain of G/T mismatch-specific thymine DNA glycosylase (Homo sapiens) (Q13569 whole entry): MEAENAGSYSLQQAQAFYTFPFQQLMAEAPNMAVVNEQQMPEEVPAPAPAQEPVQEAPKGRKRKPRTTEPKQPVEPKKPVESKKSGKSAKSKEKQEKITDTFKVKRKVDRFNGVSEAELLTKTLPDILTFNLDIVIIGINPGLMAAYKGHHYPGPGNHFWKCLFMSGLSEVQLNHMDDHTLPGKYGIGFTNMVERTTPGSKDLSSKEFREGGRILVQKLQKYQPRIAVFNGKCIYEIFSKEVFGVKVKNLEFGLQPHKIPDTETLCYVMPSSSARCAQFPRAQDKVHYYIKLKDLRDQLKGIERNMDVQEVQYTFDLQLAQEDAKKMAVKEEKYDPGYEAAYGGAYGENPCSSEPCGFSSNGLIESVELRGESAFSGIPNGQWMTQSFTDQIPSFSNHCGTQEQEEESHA
Description: Inhibition of TDG by quantifying inhibition of TDG-mediated cleavage and dissociation of quenched duplex DNA oligonucleotides, measured as fluorescence at 594 nm. To generate a functional strand incision and increase turn-over this assay is coupled to APE1.

[7] = biological target: Uracil-DNA glycosylase (Homo sapiens) (UniProt P13051); details: Compound Concentration 10.0 uM, Hit No;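 further: UNG excision on a quenched double-stranded DNA oligo probe, with APE1 added for strand incision and turnover, read as fluorescence at 594 nm as strands separate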
Chain of Uracil-DNA glycosylase (Homo sapiens) (P13051 whole entry): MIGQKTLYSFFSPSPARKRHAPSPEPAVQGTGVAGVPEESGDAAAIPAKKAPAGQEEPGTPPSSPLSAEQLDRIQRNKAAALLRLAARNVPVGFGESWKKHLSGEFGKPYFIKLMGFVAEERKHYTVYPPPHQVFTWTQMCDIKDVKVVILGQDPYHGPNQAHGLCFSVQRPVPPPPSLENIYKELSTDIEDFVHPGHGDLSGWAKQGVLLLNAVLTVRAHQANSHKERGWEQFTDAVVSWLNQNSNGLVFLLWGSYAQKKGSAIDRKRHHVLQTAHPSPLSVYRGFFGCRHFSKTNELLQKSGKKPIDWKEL
Description: Inhibition of UNG by quantifying inhibition of UNG-mediated cleavage and dissociation of quenched duplex DNA oligonucleotides, measured as fluorescence at 594 nm. To generate a functional strand incision and increase turn-over this assay is coupled to APE1.

[8] = biological target: T2, Single-strand selective monofunctional uracil DNA glycosylase (Homo sapiens) (UniProt Q53HV7); details: Compound Concentration 10.0 uM, Hit No;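 further: enzymatic SMUG1 assay coupled with APE1, reading fluorescence at 594 nm released when a quenched double-stranded DNA oligonucleotide substrate is cleaved and separated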
T2 sequence (whole entry): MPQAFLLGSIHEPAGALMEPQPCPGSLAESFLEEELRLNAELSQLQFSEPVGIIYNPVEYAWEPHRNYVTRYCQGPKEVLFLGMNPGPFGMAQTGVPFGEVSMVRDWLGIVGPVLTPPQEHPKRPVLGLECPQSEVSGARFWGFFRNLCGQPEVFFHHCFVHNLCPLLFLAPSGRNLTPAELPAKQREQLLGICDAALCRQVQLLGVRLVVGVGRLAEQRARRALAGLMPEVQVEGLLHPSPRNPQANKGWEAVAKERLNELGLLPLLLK
Description: Inhibition of SMUG1 by quantifying inhibition of SMUG1-mediated cleavage and dissociation of quenched duplex DNA oligonucleotides, measured as fluorescence at 594 nm. To generate a functional strand incision and increase turn-over this assay is coupled to APE1.

Chain of Methyl-CpG-binding domain protein 4 (Homo sapiens) (O95243 whole entry, the tested form may be a part): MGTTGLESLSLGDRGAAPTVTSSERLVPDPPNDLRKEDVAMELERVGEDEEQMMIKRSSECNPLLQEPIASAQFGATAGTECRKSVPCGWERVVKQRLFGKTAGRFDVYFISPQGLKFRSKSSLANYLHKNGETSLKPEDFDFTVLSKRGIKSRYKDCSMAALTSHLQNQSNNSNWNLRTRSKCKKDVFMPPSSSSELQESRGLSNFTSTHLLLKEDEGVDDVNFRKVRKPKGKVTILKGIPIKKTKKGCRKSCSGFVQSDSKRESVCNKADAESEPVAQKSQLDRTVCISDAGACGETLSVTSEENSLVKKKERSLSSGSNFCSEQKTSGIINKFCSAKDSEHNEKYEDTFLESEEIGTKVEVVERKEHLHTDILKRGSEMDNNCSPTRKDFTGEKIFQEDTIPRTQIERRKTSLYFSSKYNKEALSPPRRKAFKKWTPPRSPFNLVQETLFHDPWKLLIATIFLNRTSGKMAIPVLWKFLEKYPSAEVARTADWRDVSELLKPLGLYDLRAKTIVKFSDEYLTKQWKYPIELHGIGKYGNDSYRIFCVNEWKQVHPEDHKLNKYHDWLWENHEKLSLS

Structure (SMILES)	inhibition ([1]; Hit No)	inhibition [2]	inhibition [3]	inhibition [4]	inhibition [5]	inhibition [6]	inhibition [7]	inhibition [8]	inhibition ([1]; Hit Yes)
COc1ccccc1N1CCN(CCCCNC(=O)c2ccc3ccccc3c2)CC1	0.789%	14.3%	4.99%	11%	9.63%	10.4%	-4.08%		
CCOc1ccccc1C(=O)NCC1(N2CCN(CC)CC2)CCCCC1	-3.81%	-0.78%	-3.55%	3.22%		5.23%	-8.16%	-8.6%	
Nc1nc(-c2ccco2)c2cnn(Cc3ccccc3F)c2n1	-3.33%	-1.21%	-2.72%			-4.93%	-7.72%		
C[C@H](CO)Nc1nc(SCc2cccc(Cl)c2F)nc2[nH]c(=O)sc12	13.6%	2.92%	8.99%	-2.98%	5.5%	22%	-8.73%	6.22%	
C[C@H](CCC(=O)O)[C@H]1CC[C@H]2[C@@H]3CC[C@@H]4C[C@H](O)CC[C@]4(C)[C@H]3CC[C@]12C		15.2%	10%	8%	4.17%	21.8%	-8.43%	-9.19%	140%
CCC(=O)NCC[C@@H]1CCc2ccc3c(c21)CCO3	-9.72%	4.81%	10.6%	6%	6.47%	9.54%	-9.69%	-9.19%	
CC1CCN(CC[C@H]2CCCN2S(=O)(=O)c2cccc(O)c2)CC1	6.36%	-7.22%	8.25%	-5.22%	-3.4%	2.43%	-9.71%	3.5%	
C[C@H](NC(=O)CNC(=O)c1cccc(Cl)c1)c1ccccc1	-8.91%	13.7%	-1.54%	-8.97%	-9.41%	6.8%			
Cc1cc(Cn2nnc3c(-c4ccco4)nc(N)nc32)ccc1N	4.16%	-3.71%	-2.58%	2.26%	0.253%	17.6%		-2.07%	
Cc1[nH]cnc1CN1CCc2c(c3ccccc3n2C)C1=O	11.9%	3.5%	11.2%		1.31%	19%	-6.85%	3.41%	
Cc1ccc(OCC(O)C(C)NC(C)C)c2c1CCC2 (centres undefined)		6.31%	7.65%	-0.983%	-9.41%	8.49%			134%
CN1CCCC(n2nc(Cc3ccc(Cl)cc3)c3ccccc3c2=O)CC1 (centres undefined)		-9.23%	-7.17%	0.515%	-0.805%	14.5%	-8.14%	1.52%	
CC[C@@H](C)Nc1nc(C)nc2c(-c3ccc(OC)nc3C)c(C)nn12	8.63%	9.17%	4.1%	2.26%	-1.59%	17.1%	-5.14%	10.2%	
COC(=O)C1=C(C)NC(C)=C(C(=O)OCCCN2CCC(c3ccccc3)(c3ccccc3)CC2)[C@H]1c1cccc([N+](=O)[O-])c1	-5.72%	-9.35%		13.7%	-5.2%	35.3%	-9.34%	9.7%	
